Results published in paper PMC12636295 (bioRxiv, 2025).

Target: T1, SCP2 (human sterol carrier protein 2) (Homo sapiens, UniProt P22307)
T1 sequence (P22307 425-547): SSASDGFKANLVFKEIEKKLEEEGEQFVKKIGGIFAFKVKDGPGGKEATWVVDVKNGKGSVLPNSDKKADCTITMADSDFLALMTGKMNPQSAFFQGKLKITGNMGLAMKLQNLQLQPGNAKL
Assay: NBD-SA fluorescence displacement titration
Format: binding

Ki: 8.4 ± 0.6 µM
SMILES: O=C(O)C(F)(F)C(F)(F)C(F)(F)C(F)(F)C(F)(F)C(F)(F)C(F)(F)C(F)(F)C(F)(F)C(F)(F)C(F)(F)C(F)(F)C(F)(F)C(F)(F)C(F)(F)F [PFHxDA]
